{
  "source": "patent US20120142690A1",
  "about": "“Substituted piperidines” (BAYER PHARMA AKTIENGESELLSCHAFT, priority 2009, published 2012)",
  "molecular_target": "T1, human protease activated receptor 1 (PAR-1) (Homo sapiens, UniProt P25116)",
  "T1 construct": "the cell stably expresses the endogenous human PAR-1 receptor; endogenous in cells; host or cells: HEK293-derived recombinant cell line that constitutively expresses mitochondrial aequorin",
  "T1 sequence (P25116 22-425)": "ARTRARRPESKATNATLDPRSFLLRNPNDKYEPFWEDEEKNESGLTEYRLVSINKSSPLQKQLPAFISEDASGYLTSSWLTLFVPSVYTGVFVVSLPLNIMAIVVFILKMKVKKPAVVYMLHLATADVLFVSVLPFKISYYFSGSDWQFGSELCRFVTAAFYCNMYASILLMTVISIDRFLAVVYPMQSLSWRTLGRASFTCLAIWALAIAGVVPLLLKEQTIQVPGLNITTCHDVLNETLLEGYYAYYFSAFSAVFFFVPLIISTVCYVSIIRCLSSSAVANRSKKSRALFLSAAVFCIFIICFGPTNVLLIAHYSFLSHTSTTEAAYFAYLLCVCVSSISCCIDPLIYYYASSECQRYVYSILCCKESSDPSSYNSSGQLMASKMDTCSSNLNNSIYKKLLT",
  "experiment": "Cellular functional in vitro test (aequorin luminescence, PAR-1 test cell)",
  "format": "cell-based",
  "settings": "recombinant HEK293-derived cell line expressing aequorin; PAR-1 agonist at EC50; calcium-dependent luminescence",
  "text": "1.a) Cellular Functional In Vitro Test\nA recombinant cell line is used to identify antagonists of the human protease activated receptor 1 (PAR-1) and to quantify the activity of the substances described herein. The cell is originally derived from a human embryonal kidney cell (HEK293; ATCC: American Type Culture Collection, Manassas, Va. 20108, USA). The test cell line constitutively expresses a modified form of the calcium-sensitive photoprotein acquorin which, after reconstitution with the cofactor coelenterazine, emits light when the free calcium concentration in the inner mitochondrial compartment is increased (Rizzuto R, Simpson A W, Brini M, Pozzan T.; Nature 1992, 358, 325-327). Additionally, the cell stably expresses the endogenous human PAR-1 receptor and the endogenous purinergic receptor P2Y2. The resulting PAR-1 test cell responds to stimulation of the endogenous PAR-1 or P2Y2 receptor with an intracellular release of calcium ions, which can be quantified through the resulting acquorin luminescence with a suitable luminometer (Milligan G, Marshall F, Rees S, Trends in Pharmacological Sciences 1996, 17, 235-237). […]\nTest procedure: The cells are plated out two days (48 h) before the test in culture medium (DMEM F12, supplemented with 10% FCS, 2 mM glutamine, 20 mM HEPES, 1.4 mM pyruvate, 0.1 mg/ml gentamycin, 0.15% Na bicarbonate; BioWhittaker Cat.#BE04-687Q; B-4800 Verviers, Belgium) in 384-well microtitre plates and kept in a cell incubator (96% atmospheric humidity, 5% v/v CO2, 37° C.). […] The test substances are then pipetted onto the microtitre plate, and 5 minutes after the transfer of the test substances into the wells of the microtitre plate the plate is transferred into the luminometer, a PAR-1 agonist concentration which corresponds to EC50 is added and the resulting light signal is immediately measured in the luminometer. To distinguish an antagonist substance action from a toxic action, the endogenous purinergic receptor is immediately subsequently activated with agonist (ATP, final concentration 10 μM) and the resulting light signal is measured.",
  "data": [
    {"compound": "COc1ccccc1-c1ccc(/C=C/C2CC(c3ccc(C(F)(F)F)cc3)CN(C(=O)N3CCOCC3)C2)nc1", "note": "(racemic) [Example 7, (3-{(E)-2-[5-(2-Methoxyphenyl)pyridin-2-yl]vinyl}-5-[4-(trifluoromethyl)phenyl]piperidin-1-yl)-(morpholin-4-yl)methanone]", "values": [
      {"measurement": "IC50", "result": 1.9, "unit": "nM"}
    ]},
    {"compound": "O=C(N1CCOCC1)N1CC(/C=C/c2ccc(-c3cccc(Cl)c3)cn2)CC(c2ccc(C(F)(F)F)cc2)C1", "note": "(racemic) [Example 9, (3-{(E)-2-[5-(3-Chlorophenyl)pyridin-2-yl]vinyl}-5-[4-(trifluoromethyl)phenyl]piperidin-1-yl)-(morpholin-4-yl)methanone]", "values": [
      {"measurement": "IC50", "result": 2.2, "unit": "nM"}
    ]},
    {"compound": "O=C(N1CCOCC1)N1CC(/C=C/c2ccc(-c3cccc(C(F)(F)F)c3)cn2)CC(c2ccc(C(F)(F)F)cc2)C1", "note": "(single isomer, unassigned) [Example 5, Morpholin-4-yl{3-[4-(trifluoromethyl)phenyl]-5-[(E)-2-{5-[3-(trifluoromethyl)phenyl]pyridin-2-yl}vinyl]piperidin-1-yl}methanone]", "values": [
      {"measurement": "IC50", "result": 2, "unit": "nM"}
    ]}
  ]
}
